The source of these data is patent US12486280B2, “CDK inhibitors and uses thereof” (California Institute of Technology, priority 2018, dated 2025).

Molecules are shown by their SMILES. Values after ≈ are worked out from the molar mass of the structure shown. Read-outs that look alike come from different tables or passages of the source.

Data set [1] deals with drug-resistant cell lines of Table 2 (NCI-H1437, OV207, HCC1806, NCI-H2172). The data set is described as follows: Cell Line Growth Retardation Assay, resistant cohort. Format: cell-based, human. The conditions noted are these: Homo sapiens, […], geometric mean over resistant cohort; 6 days growth; read-out: AvgResIC50. The procedure:
(§1) Cells were seeded at densities of 1,000-5,000 cells per well in 48-well tissue culture plates. After a 24 hours rest period, cells were treated with compound at 10 μM, 2 μM, 0.4 μM, 0.08 μM, 0.016 μM, and 0.0032 μM. A group of cells were treated with the vehicle in which the compound was prepared and served as a control. The cells were grown in the presence of compounds for 6 days and were counted on day 0 and day 6. A11 cell counting was performed using a Synentec Cellavista plate imager. […] Growth inhibition was calculated as a ratio of cell population doublings in the presence of compound versus the absence of compound. […] IC50 values for each compound (see Table 3; reported in μM) were calculated by fitting curves to data points from each dose-response assay using the Proc NLIN function in SAS for Windows version 9.2 (SAS Institute, Inc.).
(§2) These sensitive and resistant cohorts were interrogated for response to each compound, and IC50s were calculated for each cell line using the same technique described above. Average IC50s for the sensitive and resistant cohorts were calculated as geometric means of the group. “Therapeutic Window” for each compound was calculated by dividing the average IC50 for the drug-resistant group by the average IC50 for the drug-sensitive group.

A further data set has as its target hERG potassium channels (Homo sapiens (Human), UniProt Q12809). In words: hERG Inhibition Assay (QPatch automated patch clamp, CHO cells). The conditions noted are these: percent of control current. In general terms: Block of hERG is tested as a sign of cardiac risk.
Data set [2] concerns drug-sensitive cell lines of Table 2 (EFM-19, MDA-MB-453, T-47D, ZR-75-1, NCI-H441, OVTOKO, NCI-H1838). In words: Cell Line Growth Retardation Assay, sensitive cohort. It is filed as cell-based, human. Particulars: for IC50: Homo sapiens, geometric mean over sensitive cohort, 6 days growth, read-out: AvgSensIC50; for Ther Window: average IC50 drug-resistant group divided by average IC50 drug-sensitive group. The procedure: as §1, §2

The target in a further data set is CDK6 (Homo sapiens (Human), UniProt Q00534). The data set is described as follows: Cdk4 and 6 Enzymatic Inhibition Assay (radiometric 33PanQinase, Ki determination). It is filed as biochemical. As to the method: (§3) 10 distinct concentrations were prepared, with a dilution endpoint of 6×10^−9 M in 100% DMSO. 100% DMSO was used as a control. 10 μL from each of the serial dilutions were aliquoted into separate wells of a 96-well plate and 90 μL of water were added to each of those wells. The plate was shaken thoroughly, and 5 μL from each of the plate's wells were transferred into wells of the assay plate. The final volume of wells in the assay plate was 50 μL. A11 compounds were tested at 10 assay concentrations in the range from 2×10^−6 M to 6×10^−11 M. The final DMSO concentration in the wells of the assay plate was 1% in all cases.
(§4) A radiometric protein kinase assay (33PanQinase® Activity Assay) was used for measuring the kinase activity of six protein kinases. A11 kinase assays were performed in 96-well FlashPlates™ from PerkinElmer (Boston, MA, USA). The assay for all protein kinases contained 70 mM HEPES-NaOH pH 7.5, 3 mM MgCl2, 3 mM MnCl2, 3 μM Na-orthovanadate, 1.2 mM DTT, 50 μg/mL PEG20000, ATP [γ-33P]-ATP (approx. 9×1005 cpm per well), protein kinase and substrate. The reaction cocktails were incubated at 30° C. for 60 minutes. The reaction was stopped with 50 μL of 2% (v/v) H3PO4, and plates were aspirated and washed two times with 200 μL 0.9% (w/v) NaCl. Incorporation of ^33Pi was determined with a microplate scintillation counter (Microbeta, Wallac).

For the next data set, the target named is CDK4 (Homo sapiens (Human), UniProt P11802). The description is as above. Format: biochemical. The procedure: as §3, §4
Data set [3] is described as follows: Caco-2 Assay (Papp A to B). The conditions noted are these: human, Caco-2, pH 7.4.
Data set [4] in a line: Measurement of Compound Metabolic Stability in hepatocytes.
Data set [5] deals with CYP isozymes (IC50s averaged over the isozymes). The data set is described as follows: CYP Enzymatic Inhibition Assay in human liver microsomes. A general note: Microsomes from liver hold many membrane-bound enzymes, among them those of drug oxidation.
The nature of data set [6]: Compound Solubility Assay (kinetic solubility). It is filed as physicochemical. Particulars: kinetic from dmso stock. As to the method:
The relative kinetic solubility of each compound was determined at both low (1.2) and neutral (7.4) pH. Compounds were prepared at 10 mM stocks. […] Compounds were allowed to shake at room temperature for 24 hours in 50 mM phosphate buffer pH 7.4, or in SGF buffer pH 1.2 at 37° C. for 24 hours.

hERG potassium channels, sequence (Q12809 whole entry): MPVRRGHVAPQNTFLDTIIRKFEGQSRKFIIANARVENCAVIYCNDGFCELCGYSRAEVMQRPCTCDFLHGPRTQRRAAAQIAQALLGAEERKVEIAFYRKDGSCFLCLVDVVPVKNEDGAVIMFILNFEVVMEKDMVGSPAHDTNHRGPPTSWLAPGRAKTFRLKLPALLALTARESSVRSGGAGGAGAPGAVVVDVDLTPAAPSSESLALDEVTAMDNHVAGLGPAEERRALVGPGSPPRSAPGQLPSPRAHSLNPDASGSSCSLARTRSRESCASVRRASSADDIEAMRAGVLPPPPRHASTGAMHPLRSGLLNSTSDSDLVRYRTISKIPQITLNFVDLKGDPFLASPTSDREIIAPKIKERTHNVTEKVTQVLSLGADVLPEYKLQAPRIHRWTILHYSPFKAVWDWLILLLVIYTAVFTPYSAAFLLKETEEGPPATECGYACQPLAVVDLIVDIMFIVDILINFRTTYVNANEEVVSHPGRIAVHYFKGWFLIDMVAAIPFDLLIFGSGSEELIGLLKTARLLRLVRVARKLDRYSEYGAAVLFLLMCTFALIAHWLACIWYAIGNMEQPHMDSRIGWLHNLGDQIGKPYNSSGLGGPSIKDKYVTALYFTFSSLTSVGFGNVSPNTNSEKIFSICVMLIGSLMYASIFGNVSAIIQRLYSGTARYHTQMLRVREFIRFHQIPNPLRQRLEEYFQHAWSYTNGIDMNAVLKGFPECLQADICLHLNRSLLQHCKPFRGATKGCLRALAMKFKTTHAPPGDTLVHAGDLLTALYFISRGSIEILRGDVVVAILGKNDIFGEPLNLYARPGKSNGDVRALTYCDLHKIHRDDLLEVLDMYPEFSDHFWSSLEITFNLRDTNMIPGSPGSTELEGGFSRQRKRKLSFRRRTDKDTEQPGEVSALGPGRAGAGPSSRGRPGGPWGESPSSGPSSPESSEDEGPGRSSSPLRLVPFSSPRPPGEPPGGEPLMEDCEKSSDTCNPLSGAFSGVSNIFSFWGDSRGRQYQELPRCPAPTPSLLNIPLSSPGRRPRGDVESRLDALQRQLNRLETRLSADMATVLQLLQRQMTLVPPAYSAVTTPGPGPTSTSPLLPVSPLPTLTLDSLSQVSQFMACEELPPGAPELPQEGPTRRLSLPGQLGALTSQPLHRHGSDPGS
CDK4, sequence (P11802 whole entry): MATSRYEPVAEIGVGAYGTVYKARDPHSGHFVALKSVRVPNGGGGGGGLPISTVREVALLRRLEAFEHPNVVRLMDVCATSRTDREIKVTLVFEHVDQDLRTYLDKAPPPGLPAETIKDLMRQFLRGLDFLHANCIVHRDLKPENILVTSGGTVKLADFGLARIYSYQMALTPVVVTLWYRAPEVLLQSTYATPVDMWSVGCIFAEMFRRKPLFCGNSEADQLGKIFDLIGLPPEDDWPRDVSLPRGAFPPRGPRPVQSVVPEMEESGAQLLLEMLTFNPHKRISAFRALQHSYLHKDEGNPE
CDK4, sequence (P24385 whole entry partner): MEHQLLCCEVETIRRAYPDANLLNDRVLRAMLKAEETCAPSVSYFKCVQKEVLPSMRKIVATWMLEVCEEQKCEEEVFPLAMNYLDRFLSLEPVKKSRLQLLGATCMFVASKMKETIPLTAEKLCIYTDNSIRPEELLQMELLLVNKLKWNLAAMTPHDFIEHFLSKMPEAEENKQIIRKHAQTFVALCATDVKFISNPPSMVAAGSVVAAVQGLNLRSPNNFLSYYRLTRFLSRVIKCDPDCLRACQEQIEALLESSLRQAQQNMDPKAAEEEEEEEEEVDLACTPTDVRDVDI
CDK6, sequence (Q00534 whole entry): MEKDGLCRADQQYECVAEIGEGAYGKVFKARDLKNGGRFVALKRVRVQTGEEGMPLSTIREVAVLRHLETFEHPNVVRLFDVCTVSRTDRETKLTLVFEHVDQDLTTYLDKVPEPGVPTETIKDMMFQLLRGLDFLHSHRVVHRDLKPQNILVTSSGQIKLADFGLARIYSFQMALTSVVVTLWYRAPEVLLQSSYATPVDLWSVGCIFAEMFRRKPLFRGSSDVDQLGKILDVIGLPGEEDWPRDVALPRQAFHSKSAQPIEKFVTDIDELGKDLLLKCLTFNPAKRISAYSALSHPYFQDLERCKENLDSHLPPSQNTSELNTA
CDK6, sequence (P24385 whole entry partner): as the sequence (P24385 whole entry partner) above

Turning to `CNCC[C@]1(C)CN(Cc2ccc(Nc3ncc(F)c(-c4cc(F)c5nc(C)n(C(C)C)c5c4)n3)nc2)CCO1` [Compound A5, (R)-5-fluoro-4-(4-fluoro-1-isopropyl-2-methyl-1H-benzo[d]imidazol-6-yl)-N-(5-((2-methyl-2-(2-(methylamino)ethyl)morpholino)methyl)pyridin-2-yl)pyrimidin-2-amine], the IC50 was 960 nM in [1] and 180 nM in data set [2]. This compound displayed a hERG at hERG potassium channels of 14.76%. In addition, the “Ther Window” value in [2] was found to be 5.33. Besides, the Ki (as a rule, the equilibrium dissociation constant of an inhibitor or competing ligand from its target) at CDK6 is 6.26 nM; on CDK4, 1.21 nM.
Consider `Cc1nc2c(F)cc(-c3nc(Nc4ccc(CN5CCO[C@](C)(CCNCC(F)F)C5)cn4)ncc3F)cc2n1C(C)C` [Compound A6, (R)—N-(5-((2-(2-((2,2-difluoroethyl)amino)ethyl)-2-methylmorpholino)methyl)pyridin-2-yl)-5-fluoro-4-(4-fluoro-1-isopropyl-2-methyl-1H-benzo[d]imidazol-6-yl)pyrimidin-2-amine], for which the IC50 was found to be 1000 nM in [1] and 100 nM in [2]. In [3], the Papp A→B – broadly, how fast a substance crosses the layer from the apical side – at 2 h, 2 μM stood at 1.12 ×10⁻⁶ cm/s. Further, the half-life (as a rule, how long it takes for the measured level to halve) at 1 μM in data set [4] came to 0.237 h. Further, the hERG at hERG potassium channels was found to be 32.76%. Besides, the “Ther Window” value in [2] worked out at 10.42. In addition, the Ki was found to be 5.35 nM at CDK6 and 0.83 nM on CDK4. In data set [5], this compound had an IC50 at 10 min of 14600 nM.
`Cc1nc2c(F)cc(-c3nc(Nc4ccc(CN5CCO[C@](C)(CCNC(C)(C)C)C5)cn4)ncc3F)cc2n1C(C)C` [Compound A7, (R)—N-(5-((2-(2-(tert-butylamino)ethyl)-2-methylmorpholino)methyl)pyridin-2-yl)-5-fluoro-4-(4-fluoro-1-isopropyl-2-methyl-1H-benzo[d]imidazol-6-yl)pyrimidin-2-amine]: the IC50 in data set [1] amounted to 920 nM; in data set [2], 160 nM. For the same compound, the Papp A→B at 2 h, 2 μM in [3] came to 0.04 ×10⁻⁶ cm/s. For the same compound, the half-life at 1 μM in [4] was determined as 1.24 h. In addition, in [2], the “Ther Window” value was 5.75. The Ki was 4.24 nM on CDK6 and 1 nM at CDK4.
As for `Cc1nc2c(F)cc(-c3nc(Nc4ccc(CN5CCO[C@](C)(CCN6CC(C)(O)C6)C5)cn4)ncc3F)cc2n1C(C)C` [Compound A10, (R)-1-(2-(4-((6-((5-fluoro-4-(4-fluoro-1-isopropyl-2-methyl-1H-benzo[d]imidazol-6-yl)pyrimidin-2-yl)amino)pyridin-3-yl)methyl)-2-methylmorpholin-2-yl)ethyl)-3-methylazetidin-3-ol], the IC50 in data set [1] turned out to be 970 nM; in data set [2], 70 nM. The Papp A→B at 2 h, 2 μM in data set [3] came out at 0.01 ×10⁻⁶ cm/s. The compound also registered a half-life at 1 μM in [4] of 1.11 h. Further, in [2], the “Ther Window” value was determined as 14.08. The figures for the Ki at CDK6 and on CDK4 were 5.52 nM and 0.96 nM, respectively.
For `Cc1nc2c(F)cc(-c3nc(Nc4ccc(CN5CCO[C@](C)(CCN6CC(F)C6)C5)cn4)ncc3F)cc2n1C(C)C` [Compound A13], the values for the IC50 in data set [1] and in data set [2] were 710 nM and 70 nM, respectively. In addition, the Papp A→B at 2 h, 2 μM in data set [3] was determined as 1.02 ×10⁻⁶ cm/s. The compound also displayed a half-life at 1 μM in data set [4] of 0.148 h. In addition, on hERG potassium channels, the hERG was 23.72%. In addition, the “Ther Window” value in [2] was 10.82. The Ki at CDK6 turned out to be 4.79 nM; at CDK4 it was 0.92 nM. The same compound displayed an IC50 at 10 min in [5] of 15200 nM.
As for `Cc1nc2c(F)cc(-c3nc(Nc4ccc(CN5CCO[C@](C)(CCN)C5)cn4)ncc3F)cc2n1C(C)C` [Compound A21, (R)—N-(5-((2-(2-aminoethyl)-2-methylmorpholino)methyl)pyridin-2-yl)-5-fluoro-4-(4-fluoro-1-isopropyl-2-methyl-1H-benzo[d]imidazol-6-yl)pyrimidin-2-amine], in data set [1], the IC50 was found to be 1000 nM. Besides, the half-life at 1 μM in [4] is 1.61 h. In data set [2], the IC50 was determined as 150 nM and the “Ther Window” value turned out to be 6.58.
Turning to `Cc1nc2c(F)cc(-c3nc(Nc4ccc(CN5CCO[C@@]6(CCN(C)C6)C5)cn4)ncc3F)cc2n1C(C)C` [Compound A39, (R)-5-fluoro-4-(4-fluoro-1-isopropyl-2-methyl-1H-benzo[d]imidazol-6-yl)-N-(5-((2-methyl-6-oxa-2,9-diazaspiro[4.5]decan-9-yl)methyl)pyridin-2-yl)pyrimidin-2-amine], the figures for the IC50 in data set [1] and in data set [2] were 980 nM and 300 nM, respectively. On hERG potassium channels, the hERG is 14.81%. Further, the “Ther Window” value in [2] came to 3.25. Also, the values for the Ki on CDK6 and at CDK4 were 6.62 nM and 1.83 nM, respectively.
`Cc1nc2c(F)cc(-c3nc(Nc4ccc(CN5CCC56COC6)cn4)ncc3F)cc2n1C(C)C` [Compound A61, N-(5-((6-oxa-1-azaspiro[3.3]heptan-1-yl)methyl)pyridin-2-yl)-5-fluoro-4-(4-fluoro-1-isopropyl-2-methyl-1H-benzo[d]imidazol-6-yl)pyrimidin-2-amine]: the IC50 in data set [1] was 940 nM; in data set [2], 220 nM. The “Ther Window” value in data set [2] is 4.27. Moreover, the Ki is 9.53 nM on CDK6 and 1.53 nM on CDK4.
In the case of `Cc1nc2c(F)cc(-c3nc(Nc4ccc(CN5CC6(CCC6)C5)cn4)ncc3F)cc2n1C(C)C` [Compound A63, N-(5-((2-azaspiro[3.3]heptan-2-yl)methyl)pyridin-2-yl)-5-fluoro-4-(4-fluoro-1-isopropyl-2-methyl-1H-benzo[d]imidazol-6-yl)pyrimidin-2-amine], the IC50 in data set [1] was determined as 500 nM; in data set [2], 100 nM. In addition, the “Ther Window” value in [2] is 5.03. Besides, the Ki at CDK6 stood at 3.14 nM; at CDK4 it was 0.75 nM.
Taken in the same sequence, the figures for `Cc1nc2c(F)cc(-c3nc(Nc4ccc(CN5CC6(C5)CC(F)(F)C6)cn4)ncc3F)cc2n1C(C)C` [Compound A64, N-(5-((6,6-difluoro-2-azaspiro[3.3]heptan-2-yl)methyl)pyridin-2-yl)-5-fluoro-4-(4-fluoro-1-isopropyl-2-methyl-1H-benzo[d]imidazol-6-yl)pyrimidin-2-amine] were 730 nM, 150 nM, 4.87, 4.53 nM and 0.9 nM.
Take `CC(=O)c1c(C)c2cnc(Nc3ccc(N4CCNCC4)cn3)nc2n(C2CCCC2)c1=O` [Palbociclib, reference compound]: the solubility kinetic at 24 h in data set [6] (50 mM phosphate buffer, pH 7.4, aqueous buffer, read-out: KS7) was 29.6 µM (≈ 13.2 µg/mL); in data set [6] (simulated gastric fluid, kinetic solubility, SGF buffer pH 1.2, 37° C., 24 hours, read-out: KS1), 196 µM (≈ 87.6 µg/mL). For the same compound, the Papp A→B at 2 h, 2 μM in data set [3] is 0.27 ×10⁻⁶ cm/s. Further, in [4], the half-life at 1 μM was determined as 0.915 h. For the same compound, the “Ther Window” value in [2] is recorded as 9.37. The compound also yielded an IC50 at 10 min in data set [5] of 97700 nM.
